Reference: ChEMBL document CHEMBL1150053, “Scalarane-type bishomosester terpenes from the sponge Phyllospongia foliascens” (J Nat Prod, 1992)
In brackets after ≈: the same amount, converted by molar mass.

System: KB
Assay: Cytotoxicity against human KB cells
Type: functional, cell-based

Compound | IC50 [µg/mL]
CCC(O)CC(=O)O[C@@H]1C[C@@H]2[C@@]3(C)CCC[C@](C)(CC)[C@@H]3CC[C@@]2(C)[C@@H]2C[C@@H](O)C3=C(C(=O)O[C@H]3C)[C@@]12C (some centres not stated) [PHYLLACTONE B] | 20 (≈ 37.7 µM)
CCC(O)CC(=O)O[C@@H]1C[C@@H]2[C@@]3(C)CCC[C@](C)(CC)[C@@H]3CC[C@@]2(C)[C@@H]2C[C@@H](O)C3=C(C(=O)O[C@@H]3C)[C@@]12C (some centres not stated) [PHYLLACTONE A] | 20 (≈ 37.7 µM)
